Measurements published in article PMC4467461, “Small-molecule activation of SERCA2a SUMOylation for the treatment of heart failure” (Nature Communications, 2015).

Molecular target: T1, SUMO E1 (Homo sapiens, UniProt Q9UBE0+Q9UBT2)
T1 construct: purchased R&D Systems
T1 sequence (Q9UBE0 1-346): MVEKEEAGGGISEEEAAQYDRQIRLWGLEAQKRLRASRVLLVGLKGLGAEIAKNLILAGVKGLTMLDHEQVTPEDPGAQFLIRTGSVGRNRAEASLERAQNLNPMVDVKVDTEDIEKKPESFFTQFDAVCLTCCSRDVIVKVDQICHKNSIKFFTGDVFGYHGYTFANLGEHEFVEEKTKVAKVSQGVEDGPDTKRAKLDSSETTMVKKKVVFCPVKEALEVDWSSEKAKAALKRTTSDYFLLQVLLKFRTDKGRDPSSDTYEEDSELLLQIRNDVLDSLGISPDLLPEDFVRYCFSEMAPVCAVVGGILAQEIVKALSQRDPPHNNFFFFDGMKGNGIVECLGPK
T1 sequence (Q9UBT2 1-640): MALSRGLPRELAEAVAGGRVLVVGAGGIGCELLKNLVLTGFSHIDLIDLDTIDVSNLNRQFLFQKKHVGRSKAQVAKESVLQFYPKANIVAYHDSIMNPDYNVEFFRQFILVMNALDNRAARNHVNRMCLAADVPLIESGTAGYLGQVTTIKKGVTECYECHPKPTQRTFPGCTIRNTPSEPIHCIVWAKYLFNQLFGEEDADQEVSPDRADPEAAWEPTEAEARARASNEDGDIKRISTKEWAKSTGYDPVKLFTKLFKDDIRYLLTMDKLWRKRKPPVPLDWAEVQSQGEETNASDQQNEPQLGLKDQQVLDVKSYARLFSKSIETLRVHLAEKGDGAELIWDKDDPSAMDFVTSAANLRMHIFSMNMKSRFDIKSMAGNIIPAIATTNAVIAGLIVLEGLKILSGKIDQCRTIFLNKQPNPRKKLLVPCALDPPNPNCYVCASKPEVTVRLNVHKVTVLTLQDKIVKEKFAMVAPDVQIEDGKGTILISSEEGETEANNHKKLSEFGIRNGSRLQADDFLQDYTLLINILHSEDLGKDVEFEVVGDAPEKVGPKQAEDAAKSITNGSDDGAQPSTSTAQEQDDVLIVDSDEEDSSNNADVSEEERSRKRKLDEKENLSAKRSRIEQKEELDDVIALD
Assay: In-vitro E1-SUMO-1 and E1-dependent E2-SUMO-1 thioester formation (gel shift / western blot)
Assay type: biochemical
Experimental: Figure 3 SUMO-specific activating enzyme, E1, is a direct target of N106. Mechanism of action of N106 on individual steps in the SUMOylation cascade in vitro. (a) Inorganic pyrophosphate resulting from ATP hydrolysis in E1-catalysed SUMO-1 activation in the presence of increasing concentration of N106 compound was assessed by fluorogenic pyrophosphate assay kit. Recombinant human SUMO-specific E1 (0.05 μM), human Ubc9 (0.25 μM), human SUMO-1 (12.5 μM) and ATP (1 mM) were incubated with increasing concentration of N106 for 30 min at 37 °C and quantified using a fluorescence microplate reader. (b) The SAE2-SUMO-1 conjugation was detected followed by western blotting with anti-SAE2 antibodies. SUMO E1 (0.05 μM), SUMO-1 (12.5 μM) and ATP (1 mM) were co-incubated with increasing concentration of N106 for 30 min at 37 °C. The reaction mixtures were separated on 7.5% SDS–PAGE gel under non-reducing conditions. (c) E2-SUMO-1 conjugation was visualized by western blotting with anti-Ubc9 antibody. SUMO E1 (0.05 μM), Ubc9 (0.25 μM), SUMO-1 (12.5 μM) and ATP (1 mM) were incubated without or with increasing concentration of N106 for 30 min at 37 °C. […] (e) ATP hydrolytic activity of WT and mutant SUMO E1 are determined. (f) The E1-SUMO-1 conjugation was detected followed by western blot analysis with anti-SAE2 antibody. *The SAE2-SUMO-1 conjugated bands. […]
Biochemical activity of SUMO-specific E1 enzymes was examined by ATPase assay and in-vitro gel-shifting assays. ATP hydrolysis activity of E1 enzymes was measured by using pyrophosphate assay kit (Abcam Inc.). […] The E1-thioester formation was analysed in reaction mixtures containing 0.05 μM E1, 12.5 μM SUMO-1 and 1 mM ATP with N106 or DMSO. The E1-dependent E2-SUMO-1 thioester formation was assessed using reaction containing 0.05 μM E1, 0.25 μM E2, 12.5 μM SUMO-1 and 1 mM ATP with N106 or DMSO. Assays were incubated at 37 °C for 30 min and were mixed with non-reducing sample buffer, and analysed in non-reducing condition. Western blotting using antibodies against SAE2 and Ubc9 detected the SUMO conjugations. […]

SUMO-1 conjugation to SUMO E1 and E1-dependent thioester bond formation between SUMO E2 and SUMO-1 (at 50 μM concentration): less pronounced | SUMO-1 conjugation to SUMO E1 and E1-dependent thioester bond formation between SUMO E2 and SUMO-1 (at over 100 μM concentration): inhibited
Compound: COc1ccc(-c2nnc(Nc3nc4c(OC)cccc4s3)o2)cc1 [Compound N106, N-(4-methoxybenzo[d]thiazol-2-yl)-5-(4-methoxyphenyl)-1,3,4-oxadiazol-2-amine]
maximal tolerated doses for in-vitro thioester formation between the SUMO E1 and SUMO-1 (30 min at 37 °C): ~20 µM
